# Patent US10071957B2, “N-substituted benzamides and methods of use thereof” (GENENTECH, INC., priority 2012, dated 2018)
# Target: hNaV1.7 (Homo sapiens (Human), UniProt Q15858)
# Assay: Competitive binding of tritiated compound to membranes from cells expressing hNav1.7 and the β1 subunit
# Details: 100 pM [3H]compound, 18 h, room temperature; read-out: NaV1.7 395 Membrane Binding IC50
# Experimental: Tritiated compound binding to membranes isolated from cells that heterologously express hNav1.7 and the β1 subunit
# Preparation of membranes containing recombinantly expressed sodium channels: Frozen recombinant cell pellets were thawed on ice and diluted to 4 times the cell pellet weight with ice cold 50 mM Tris HCl, pH 7.4 buffer. The cell suspensions were homogenized on ice using a motorized glass dounce homogeniser. Homogenates were further diluted 8.4 times with ice cold 50 mM Tris HCl, pH 7.4 buffer and then centrifuged at 200×g at 4° C. for 15 min. The supernatants were collected and centrifuged at 10000×g at 4° C. for 50 min. The pellets were then re-suspended in 100 mM NaCl, 20 mM Tris HCl, pH 7.4 buffer containing 1% v/v protease inhibitors (Calbiochem) and re-homogenized on ice. The homogenized membranes were then processed through a syringe equipped with a 26 gauge needle. Protein concentrations were determined by Bradford Assay and the membranes were stored at −80° C.
# Radioligand Binding Studies: Saturation experiments. A representative compound of formula (I) was tritiated. Three tritiums were incorporated in place of methyl hydrogens to generate [^3H]compound. Binding of this radioligand was performed in 5 mL borosilicate glass test tubes at room temperature. Binding was initiated by adding membranes to increasing concentrations of [^3H]compound in 100 mM NaCl, 20 mM Tris HCl, pH 7.4 buffer containing 0.01% w/v bovine serum albumin (BSA) for 18 h. Non-specific binding was determined in the presence of 1 μM unlabelled compound. After 18 h, the reactants were filtered through GF/C glass fiber filters presoaked in 0.5% w/v polyethylene imine. Filters were washed with 15 mL ice cold 100 mM NaCl, 20 mM Tris HCl, pH 7.4 buffer containing 0.25% BSA to separate bound from free ligand. [^3H]compound bound to filters was quantified by liquid scintillation counting.
# Competitive binding experiments. Binding reactions were performed in 96-well polypropylene plates at room temperature for 18 h. In 360 μL, membranes were incubated with 100 pM [^3H]compound and increasing concentrations of Test Compound. Non-specific binding was defined in the presence of 1 μM unlabelled compound. Reactions were transferred and filtered through 96-well glass fiber/C filter plates presoaked with 0.5% polyethylene imine. The filtered reactions were washed 5 times with 200 μL ice cold buffer containing 0.25% BSA. Bound radioactivity was determined by liquid scintillation counting.
# Data Analysis: For saturation experiments, non-specific binding was subtracted from total binding to provide specific binding and these values were recalculated in terms of pmol ligand bound per mg protein. Saturation curves were constructed and dissociation constants were calculated using the single site ligand binding model: Beq=(Bmax*X)/(X+Kd), where Beq is the amount of ligand bound at equilibrium, Bmax is the maximum receptor density, Kd is the dissociation constant for the ligand, and X is the free ligand concentration. For competition studies percent inhibition was determined and IC50 values were calculated using a 4 parameter logistic model (% inhibition=(A+((B−A)/(1+((x/C)^D)))) using XLfit, where A and B are the maximal and minimum inhibition respectively, C is the IC50 concentration and D is the (Hill) slope.
# Chain of hNaV1.7 (Q15858 whole entry, looked up): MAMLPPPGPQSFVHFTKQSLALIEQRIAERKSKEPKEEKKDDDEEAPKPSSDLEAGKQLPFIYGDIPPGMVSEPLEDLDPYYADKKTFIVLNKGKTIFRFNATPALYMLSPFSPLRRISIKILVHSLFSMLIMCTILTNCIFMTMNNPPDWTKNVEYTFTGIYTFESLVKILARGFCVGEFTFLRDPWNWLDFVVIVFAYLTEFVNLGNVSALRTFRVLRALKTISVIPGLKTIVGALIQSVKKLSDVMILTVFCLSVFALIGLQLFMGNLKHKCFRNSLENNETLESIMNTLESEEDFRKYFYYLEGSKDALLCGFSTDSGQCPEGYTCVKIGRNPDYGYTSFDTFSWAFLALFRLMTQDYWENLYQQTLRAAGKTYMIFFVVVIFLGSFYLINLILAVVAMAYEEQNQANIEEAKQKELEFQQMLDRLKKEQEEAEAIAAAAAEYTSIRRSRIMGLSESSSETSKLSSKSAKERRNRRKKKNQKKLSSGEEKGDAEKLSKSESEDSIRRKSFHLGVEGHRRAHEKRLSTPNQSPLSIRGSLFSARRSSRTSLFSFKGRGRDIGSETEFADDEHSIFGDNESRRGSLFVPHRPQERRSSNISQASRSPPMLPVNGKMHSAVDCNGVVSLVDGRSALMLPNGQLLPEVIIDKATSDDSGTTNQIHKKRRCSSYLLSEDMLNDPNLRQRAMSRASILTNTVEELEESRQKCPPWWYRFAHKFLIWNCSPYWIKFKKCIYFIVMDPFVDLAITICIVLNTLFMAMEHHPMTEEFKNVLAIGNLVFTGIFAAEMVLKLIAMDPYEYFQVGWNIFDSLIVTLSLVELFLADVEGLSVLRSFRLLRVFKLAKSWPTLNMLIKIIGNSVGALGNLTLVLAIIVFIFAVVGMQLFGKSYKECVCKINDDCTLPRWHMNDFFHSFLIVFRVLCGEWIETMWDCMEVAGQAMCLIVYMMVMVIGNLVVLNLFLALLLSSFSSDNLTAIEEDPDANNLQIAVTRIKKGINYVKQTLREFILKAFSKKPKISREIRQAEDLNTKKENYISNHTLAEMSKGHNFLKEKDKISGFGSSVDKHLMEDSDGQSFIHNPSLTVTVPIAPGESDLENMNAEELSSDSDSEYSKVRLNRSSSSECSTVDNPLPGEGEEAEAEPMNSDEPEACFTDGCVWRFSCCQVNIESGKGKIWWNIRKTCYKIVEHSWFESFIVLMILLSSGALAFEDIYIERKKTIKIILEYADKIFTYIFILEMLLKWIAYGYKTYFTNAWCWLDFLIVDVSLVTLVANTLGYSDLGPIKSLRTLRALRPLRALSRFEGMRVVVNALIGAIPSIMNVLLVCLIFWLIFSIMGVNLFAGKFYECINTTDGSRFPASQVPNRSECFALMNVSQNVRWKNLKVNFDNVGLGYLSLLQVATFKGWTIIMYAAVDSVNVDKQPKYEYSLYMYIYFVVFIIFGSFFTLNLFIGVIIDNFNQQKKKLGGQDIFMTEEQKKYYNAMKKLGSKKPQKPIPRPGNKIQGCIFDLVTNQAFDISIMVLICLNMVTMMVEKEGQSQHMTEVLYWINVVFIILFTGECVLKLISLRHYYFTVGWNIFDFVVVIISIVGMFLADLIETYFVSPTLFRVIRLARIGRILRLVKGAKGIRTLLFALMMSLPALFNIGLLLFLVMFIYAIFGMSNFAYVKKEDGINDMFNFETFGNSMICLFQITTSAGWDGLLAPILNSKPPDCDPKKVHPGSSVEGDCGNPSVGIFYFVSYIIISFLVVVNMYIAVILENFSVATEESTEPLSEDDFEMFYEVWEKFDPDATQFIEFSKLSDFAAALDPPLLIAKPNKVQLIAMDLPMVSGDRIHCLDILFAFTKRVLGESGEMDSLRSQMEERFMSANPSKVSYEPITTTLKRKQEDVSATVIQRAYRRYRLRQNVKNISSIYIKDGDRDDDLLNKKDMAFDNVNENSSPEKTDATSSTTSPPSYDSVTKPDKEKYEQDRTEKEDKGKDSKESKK
# Chain of hNaV1.7 (Q07699 whole entry partner, looked up): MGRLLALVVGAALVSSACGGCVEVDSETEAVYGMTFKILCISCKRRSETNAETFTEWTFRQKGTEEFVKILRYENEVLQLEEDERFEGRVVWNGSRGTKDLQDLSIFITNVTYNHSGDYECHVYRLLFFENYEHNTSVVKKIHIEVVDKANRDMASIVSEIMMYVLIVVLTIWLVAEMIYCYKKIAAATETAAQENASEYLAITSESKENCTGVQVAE
row,SMILES,IC50 [nM]
1,"NS(=O)(=O)NC(=O)c1cc(Cl)c(COc2cnc(OCC(F)(F)C(F)F)c(Cl)c2)cc1F [Preparation 36, 5-chloro-4-(((5-chloro-6-(2,2,3,3-tetrafluoropropoxy)pyridin-3-yl)oxy)methyl)-2-fluoro-N-sulfamoylbenzamide]",460
2,O=C(NS(=O)(=O)N1CCC1)c1cc(C2CC2)c(COc2cc(Cl)cc(Cl)c2)cc1F [Preparation 96],0.3
3,"CC(C)COc1ncc(Oc2cc(F)c(C(=O)NS(=O)(=O)N3CCNCC3)cc2Cl)cc1Cl [Preparation 42, 5-chloro-4-((5-chloro-6-isobutoxypyridin-3-yl)oxy)-2-fluoro-N-(piperazin-1-ylsulfonyl)benzamide]",856
4,"CN(C)S(=O)(=O)NC(=O)c1cc(Cl)c(Oc2cccc3cnccc23)cc1F [Preparation 60, 5-chloro-N-(N,N-dimethylsulfamoyl)-2-fluoro-4-(isoquinolin-5-yloxy)benzamide]",20000
5,CNS(=O)(=O)NC(=O)c1cc(Cl)c(COc2cnc(OC(C)C)c(Cl)c2)cc1F [Preparation 77],140
6,COc1ncccc1-c1cc(C(=O)NS(=O)(=O)N2CCC2)ccc1Oc1ccc(OC(F)(F)F)c(Cl)c1 [Preparation 97],52
7,"CN(C)S(=O)(=O)NC(=O)c1cc(Cl)c(Oc2ccc3cc[nH]c3c2)cc1F [Preparation 56, 4-((1H-indol-6-yl)oxy)-5-chloro-N-(N,N-dimethyl-sulfamoyl)-2-fluoro-benzamide]",990
8,CNS(=O)(=O)NC(=O)c1cc(Cl)c(COc2ccc(OC(F)(F)F)c(Cl)c2)cc1F [Preparation 100],43

# The remaining lines, values ahead:
row,IC50 [nM],SMILES
1,1300,"CN(C)S(=O)(=O)NC(=O)c1cc(Cl)c(OCCc2ccccc2)cc1F [Preparation 58, 5-chloro-N-(N,N-dimethylsulfamoyl)-2-fluoro-4-phenethoxy-benzamide]"
2,4680,"NS(=O)(=O)NC(=O)c1cc(Cl)c(Oc2cnc(Cl)c(Cl)c2)cc1F [Preparation 34, 5-chloro-4-((5,6-dichloropyridin-3-yl)oxy)-2-fluoro-N-sulfamoylbenzamide]"
3,20000,"CN(C)S(=O)(=O)NC(=O)c1cc(Cl)c(Oc2ccc3ccncc3c2)cc1F [Preparation 73, 5-chloro-N-(N,N-dimethylsulfamoyl)-2-fluoro-4-(isoquinolin-7-yloxy)benzamide]"
4,14000,"CN(C)S(=O)(=O)NC(=O)c1cc(Cl)c(Oc2ccc3cnn(C)c3c2)cc1F [Preparation 62, 5-chloro-N-(N,N-dimethylsulfamoyl)-2-fluoro-4-((1-methyl-1H-indazol-6-yl)oxy) benzamide]"
5,9,O=C(NS(=O)(=O)N1CCC1)c1cc(C2CC2)c(Oc2cnc(OCC(F)(F)F)c(Cl)c2)cc1F [Preparation 94]
6,869,"CN(C)S(=O)(=O)NC(=O)c1cc(Cl)c(Oc2ccc(-c3nccs3)cc2)cc1F [Preparation 44, 5-chloro-N-(N,N-dimethylsulfamoyl)-2-fluoro-4-(4-(thiazol-2-yl)phenoxy) benzamide]"
7,26,"O=C(NS(=O)(=O)N1CCCC1)c1cc(Cl)c(Oc2cnc(OCC(F)(F)C(F)F)c(Cl)c2)cc1F [Preparation 66, 5-chloro-4-((5-chloro-6-(2,2,3,3-tetrafluoro-propoxy)pyridin-3-yl)oxy)-2-fluoro-N-(pyrrolidin-1-ylsulfonyl)benzamide]"
8,26,O=C(NS(=O)(=O)N1CCC1)c1cc(Cl)c(COc2ccc(Cl)c(C(F)(F)F)c2)cc1F [Preparation 85]
9,140,"CN(C)S(=O)(=O)NC(=O)c1cc(Cl)c(Oc2cnc(N3CCCCC3)c(Cl)c2)cc1F [Preparation 63, 5-chloro-4-((5-chloro-6-(piperidin-1-yl)pyridin-3-yl)oxy)-N-(N,N-dimethyl-sulfamoyl)-2-fluoro-benzamide]"
10,2,O=C(NS(=O)(=O)N1CCC1)c1cc(C2CC2)c(COc2cc(Cl)cc(OC(F)(F)F)c2)cc1F [Preparation 95]
